IC50 data for 16 compounds are collected here from patent publication US12371454B2, “Cyclic peptide compound having Kras inhibitory action” (priority 2019, dated 2025).

The term IC50 denotes the concentration that inhibits the measured activity by half.

Assay [1] addresses T1, Kras and SOS1 (biotin-tagged human Kras loaded with GDP, His-tagged human SOS1) (Homo sapiens, UniProt P01116, G12D).
T1 construct: made in house; host or cells: E. coli (stated for Kras only)
As to the kind of experiment: Protein-protein interaction inhibition between Kras and SOS1 (KrasGl2D-SOS PPI) using AlphaScreen. Format: binding. The note with it: AlphaScreen; biotin-tagged human Kras loaded with GDP, His-tagged human SOS1; read-out: KRAS G12D-SOS PPI IC50. Put shortly:
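Donor beads (nickel) hold His-SOS1; acceptor beads (streptavidin) hold biotin-Kras bound to GDP. Signal measured at 520-620 nm following 680 nm excitation.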
(In general: Alpha assays give light when donor and acceptor beads are brought close together.)

In assay [2] the test system is Human pancreatic cancer cell line AsPC-1. Put plainly: Measurement of AsPC-1 cell growth inhibition (AsPC-1 CGI). Format: cell-based. The note with it: 96 h. Put shortly: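 AsPC-1 cells in 15% FBS RPMI-1640 were exposed to test compound for 96 hours at 37° C, with CellTiter-Glo as endpoint.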

Starred links: 1 amine or outer side, 2 acyl side, 3 side chain; linkers in the order of their positions; H or OH if unused. Positions of bridges follow the written chain, without caps; N, C: chain ends. Non-standard residues stand in square brackets, D forms with d. Residues, ends and D or L forms follow the SMILES beside them. *: point of attachment. hPhe(3-Cl-4-CF3) = N[C@@H](CCc1ccc(C(F)(F)F)c(Cl)c1)C(=O)O; NMeAbu(4,4,4-F3) = CN[C@@H](CC(F)(F)F)C(=O)O; NMePhe(4-Me) = CN[C@@H](Cc1ccc(C)cc1)C(=O)O; NMedβ3hAla = C[C@H](CC(=O)[*:2])N(C)[*:1]; NMeAla(cPent) = CN[C@@H](CC1CCCC1)C(=O)O; NMeNva(5,5-F2) = CN[C@@H](CCC(F)F)C(=O)O; NMeGly(cPent) = CN[C@H](C(=O)O)C1CCCC1; NMeCha = CN[C@@H](CC1CCCCC1)C(=O)O; NMeChg = CN[C@H](C(=O)O)C1CCCCC1; NMeI = CC[C@H](C)[C@H](NC)C(=O)O; NMeD = CN[C@@H](CC(=O)O)C(=O)O; NMeL = CN[C@@H](CC(C)C)C(=O)O; NMeV = CN[C@H](C(=O)O)C(C)C; NMeS = CN[C@@H](CO)C(=O)O; NMeA = CN[C@@H](C)C(=O)O; Piperidide = C1CCN(*)CC1; Pyrrolidide = C1CCN(*)C1; Ac5c = NC1(C(=O)O)CCCC1; Aze = O=C(O)[C@@H]1CCN1; Aib = CC(C)(N)C(=O)O; Sar = CNCC(=O)O; Propyl = CCC*

T1 sequence (P01116 1-188 isoform P01116-2 G12D): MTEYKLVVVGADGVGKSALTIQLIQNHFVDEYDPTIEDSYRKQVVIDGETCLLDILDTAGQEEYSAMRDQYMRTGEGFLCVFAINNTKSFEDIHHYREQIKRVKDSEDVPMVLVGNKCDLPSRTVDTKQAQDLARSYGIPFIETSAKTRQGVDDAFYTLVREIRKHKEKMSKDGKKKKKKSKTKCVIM

`CC[C@H](C)[C@@H]1NC(=O)[C@H](CC2CCCC2)N(C)C(=O)C[C@@H](C(=O)N2CCCCC2)N(C)C(=O)[C@H](C2CCCCC2)N(C)C(=O)C2(CCCC2)NC(=O)[C@@H]2CCCN2C(=O)[C@H](CCc2ccc(C(F)(F)F)c(Cl)c2)NC(=O)CN(C)C(=O)[C@H](CC2CCCCC2)N(C)C(=O)CN(C)C(=O)CN(C)C1=O` [Compound 1663] ([NMeAla(cPent)]I[Sar][Sar][NMeCha][Sar][hPhe(3-Cl-4-CF3)]P[Ac5c][NMeChg][NMeD]-Piperidide; lactam N-11): the IC50 in assay [1] is 1.6 nM; in assay [2], 100 to 500 nM.

As for `CCCOC[C@H]1C(=O)N[C@@H]([C@@H](C)CC)C(=O)N(C)CC(=O)N(C)CC(=O)N(C)[C@@H](CC2CCCCC2)C(=O)N(C)CC(=O)N[C@@H](CCc2ccc(C(F)(F)F)c(Cl)c2)C(=O)N2CCC[C@H]2C(=O)NC2(CCCC2)C(=O)N(C)[C@@H](C2CCCCC2)C(=O)N(C)[C@H](C(=O)N2CCCCC2)CC(=O)N1C` [Compound 1668] ([NMeS](Propyl)I[Sar][Sar][NMeCha][Sar][hPhe(3-Cl-4-CF3)]P[Ac5c][NMeChg][NMeD]-Piperidide; lactam N-11), the values for the IC50 in assay [1] and in assay [2] were 0.85 nM and 50 to 100 nM, respectively.

`CC[C@H](C)[C@@H]1NC(=O)[C@H](CC(C)C)N(C)C(=O)C[C@@H](C(=O)N2CCCCC2)N(C)C(=O)[C@H](C2CCCCC2)N(C)C(=O)C2(CCCC2)NC(=O)[C@@H]2CCCN2C(=O)[C@H](CCc2ccc(C(F)(F)F)c(Cl)c2)NC(=O)CN(C)C(=O)[C@H](C2CCCC2)N(C)C(=O)CN(C)C(=O)CN(C)C1=O` [Compound 1669] ([NMeL]I[Sar][Sar][NMeGly(cPent)][Sar][hPhe(3-Cl-4-CF3)]P[Ac5c][NMeChg][NMeD]-Piperidide; lactam N-11): the figures for the IC50 in assay [1] and in assay [2] were 1.8 nM and 100 to 500 nM, respectively.

As to `CC[C@H](C)[C@@H]1NC(=O)[C@H]([C@@H](C)CC)N(C)C(=O)C[C@@H](C(=O)N2CCCCC2)N(C)C(=O)[C@H](C2CCCCC2)N(C)C(=O)C2(CCCC2)NC(=O)[C@@H]2CCCN2C(=O)[C@H](CCc2ccc(C(F)(F)F)c(Cl)c2)NC(=O)CN(C)C(=O)[C@H](CC2CCCCC2)N(C)C(=O)CN(C)C(=O)CN(C)C1=O` [Compound 1671] ([NMeI]I[Sar][Sar][NMeCha][Sar][hPhe(3-Cl-4-CF3)]P[Ac5c][NMeChg][NMeD]-Piperidide; lactam N-11), the IC50 is 1.1 nM in assay [1] and 50 to 100 nM in assay [2].

On to `CC[C@H](C)[C@@H]1NC(=O)[C@H](CC(C)C)N(C)C(=O)C[C@@H](C)N(C)C(=O)[C@H](C2CCCCC2)N(C)C(=O)C2(CCCC2)NC(=O)[C@@H]2CCCN2C(=O)[C@H](CCc2ccc(C(F)(F)F)c(Cl)c2)NC(=O)CN(C)C(=O)[C@H](Cc2ccc(C)cc2)N(C)C(=O)[C@@H]2CCN2C(=O)[C@H](C)N(C)C1=O` [Compound 1673] (cyclo([Ac5c][NMeChg][NMedβ3hAla][NMeL]I[NMeA][Aze][NMePhe(4-Me)][Sar][hPhe(3-Cl-4-CF3)]P)), for which the IC50 in assay [1] was 5.4 nM; in assay [2] it was 100 to 500 nM.

Turning to `CC[C@H](C)[C@@H]1NC(=O)[C@H](CC(C)C)N(C)C(=O)C[C@@H](C(=O)N2CCCCC2)N(C)C(=O)[C@H](C2CCCCC2)N(C)C(=O)C(C)(C)NC(=O)[C@@H]2CCCN2C(=O)[C@H](CCc2ccc(C(F)(F)F)c(Cl)c2)NC(=O)CN(C)C(=O)[C@H](CC2CCCCC2)N(C)C(=O)CN(C)C(=O)CN(C)C1=O` [Compound 1680] ([NMeL]I[Sar][Sar][NMeCha][Sar][hPhe(3-Cl-4-CF3)]P[Aib][NMeChg][NMeD]-Piperidide; lactam N-11), the values for the IC50 in assay [1] and in assay [2] were 0.61 nM and 50 to 100 nM, respectively.

As for `CC[C@H](C)[C@@H]1NC(=O)[C@H](CC(C)C)N(C)C(=O)C[C@@H](C)N(C)C(=O)[C@H](C2CCCCC2)N(C)C(=O)C2(CCCC2)NC(=O)[C@@H]2CCCN2C(=O)[C@H](CCc2ccc(C(F)(F)F)c(Cl)c2)NC(=O)CN(C)C(=O)[C@H](Cc2ccc(C)cc2)N(C)C(=O)CN(C)C(=O)CN(C)C1=O` [Compound 1682] (cyclo([Ac5c][NMeChg][NMedβ3hAla][NMeL]I[Sar][Sar][NMePhe(4-Me)][Sar][hPhe(3-Cl-4-CF3)]P)), the 50% inhibitory concentration (IC50) was 2.4 nM in assay [1] and 100 to 500 nM in assay [2].

Turning to `CC[C@H](C)[C@@H]1NC(=O)[C@H](CC(C)C)N(C)C(=O)C[C@@H](C(=O)N2CCCCC2)N(C)C(=O)[C@H](C(C)C)N(C)C(=O)C2(CCCC2)NC(=O)[C@@H]2CCCN2C(=O)[C@H](CCc2ccc(C(F)(F)F)c(Cl)c2)NC(=O)CN(C)C(=O)[C@H]([C@@H](C)CC)N(C)C(=O)[C@@H]2CCN2C(=O)[C@H](C)N(C)C1=O` [Compound 1684] ([NMeL]I[NMeA][Aze][NMeI][Sar][hPhe(3-Cl-4-CF3)]P[Ac5c][NMeV][NMeD]-Piperidide; lactam N-11), the figures for the IC50 in assay [1] and in assay [2] were 4.3 nM and 100 to 500 nM, respectively.

As for `CC[C@H](C)[C@@H]1NC(=O)[C@H](CC(C)C)N(C)C(=O)C[C@@H](C(=O)N2CCCCC2)N(C)C(=O)[C@H](C2CCCCC2)N(C)C(=O)C2(CCCC2)NC(=O)[C@@H]2CCCN2C(=O)[C@H](CCc2ccc(C(F)(F)F)c(Cl)c2)NC(=O)CN(C)C(=O)[C@H]([C@@H](C)CC)N(C)C(=O)CN(C)C(=O)CN(C)C1=O` [Compound 1686] ([NMeL]I[Sar][Sar][NMeI][Sar][hPhe(3-Cl-4-CF3)]P[Ac5c][NMeChg][NMeD]-Piperidide; lactam N-11), the figures for the IC50 in assay [1] and in assay [2] were 1.5 nM and 100 to 500 nM, respectively.

As for `CC[C@H](C)[C@@H]1NC(=O)[C@H](CC(C)C)N(C)C(=O)C[C@@H](C(=O)N2CCCCC2)N(C)C(=O)[C@H](C2CCCCC2)N(C)C(=O)C2(CCCC2)NC(=O)[C@@H]2CCCN2C(=O)[C@H](CCc2ccc(C(F)(F)F)c(Cl)c2)NC(=O)CN(C)C(=O)[C@H](CC2CCCC2)N(C)C(=O)CN(C)C(=O)CN(C)C1=O` [Compound 1689] ([NMeL]I[Sar][Sar][NMeAla(cPent)][Sar][hPhe(3-Cl-4-CF3)]P[Ac5c][NMeChg][NMeD]-Piperidide; lactam N-11), the IC50 in assay [1] is 1.1 nM; in assay [2] it was 50 to 100 nM.

Consider `CC[C@H](C)[C@@H]1NC(=O)[C@H](CC(C)C)N(C)C(=O)C[C@@H](C)N(C)C(=O)[C@H](C2CCCC2)N(C)C(=O)C2(CCCC2)NC(=O)[C@@H]2CCCN2C(=O)[C@H](CCc2ccc(C(F)(F)F)c(Cl)c2)NC(=O)CN(C)C(=O)[C@H](Cc2ccc(C)cc2)N(C)C(=O)CN(C)C(=O)CN(C)C1=O` [Compound 1694] (cyclo([Ac5c][NMeGly(cPent)][NMedβ3hAla][NMeL]I[Sar][Sar][NMePhe(4-Me)][Sar][hPhe(3-Cl-4-CF3)]P)), for which the IC50 in assay [1] was 0.55 nM; in assay [2], 20 to 50 nM.

On to `CC[C@H](C)[C@@H]1NC(=O)[C@H](C)N(C)C(=O)C[C@@H](C(=O)N2CCCCC2)N(C)C(=O)[C@H](C2CCCCC2)N(C)C(=O)C2(CCCC2)NC(=O)[C@@H]2CCCN2C(=O)[C@H](CCc2ccc(C(F)(F)F)c(Cl)c2)NC(=O)CN(C)C(=O)[C@H](CC2CCCCC2)N(C)C(=O)CN(C)C(=O)CN(C)C1=O` [Compound 1696] ([NMeA]I[Sar][Sar][NMeCha][Sar][hPhe(3-Cl-4-CF3)]P[Ac5c][NMeChg][NMeD]-Piperidide; lactam N-11), for which the IC50 in assay [1] is 0.57 nM; in assay [2], 50 to 100 nM.

In the case of `CC[C@H](C)[C@@H]1NC(=O)[C@H](CC(C)C)N(C)C(=O)C[C@@H](C(=O)N2CCCC2)N(C)C(=O)[C@H](C(C)C)N(C)C(=O)C2(CCCC2)NC(=O)[C@@H]2CCCN2C(=O)[C@H](CCc2ccc(C(F)(F)F)c(Cl)c2)NC(=O)CN(C)C(=O)[C@H](CC2CCCC2)N(C)C(=O)CN(C)C(=O)CN(C)C1=O` [Compound 1699] ([NMeL]I[Sar][Sar][NMeAla(cPent)][Sar][hPhe(3-Cl-4-CF3)]P[Ac5c][NMeV][NMeD]-Pyrrolidide; lactam N-11), the IC50 is 1.1 nM in assay [1] and 100 to 500 nM in assay [2].

On to `CC[C@H](C)[C@@H]1NC(=O)[C@H](CCC(F)F)N(C)C(=O)C[C@@H](C(=O)N2CCCCC2)N(C)C(=O)[C@H](C2CCCCC2)N(C)C(=O)C2(CCCC2)NC(=O)[C@@H]2CCCN2C(=O)[C@H](CCc2ccc(C(F)(F)F)c(Cl)c2)NC(=O)CN(C)C(=O)[C@H](CC2CCCCC2)N(C)C(=O)CN(C)C(=O)CN(C)C1=O` [Compound 1700] ([NMeNva(5,5-F2)]I[Sar][Sar][NMeCha][Sar][hPhe(3-Cl-4-CF3)]P[Ac5c][NMeChg][NMeD]-Piperidide; lactam N-11), for which the IC50 in assay [1] is 0.66 nM; in assay [2], 20 to 50 nM.

`CC[C@H](C)[C@@H]1NC(=O)[C@H](CC(F)(F)F)N(C)C(=O)C[C@@H](C(=O)N2CCCCC2)N(C)C(=O)[C@H](C2CCCCC2)N(C)C(=O)C2(CCCC2)NC(=O)[C@@H]2CCCN2C(=O)[C@H](CCc2ccc(C(F)(F)F)c(Cl)c2)NC(=O)CN(C)C(=O)[C@H](CC2CCCCC2)N(C)C(=O)CN(C)C(=O)CN(C)C1=O` [Compound 1701] ([NMeAbu(4,4,4-F3)]I[Sar][Sar][NMeCha][Sar][hPhe(3-Cl-4-CF3)]P[Ac5c][NMeChg][NMeD]-Piperidide; lactam N-11): the IC50 in assay [1] is 0.75 nM; in assay [2] it was 20 to 50 nM.

Take `CC[C@H](C)[C@@H]1NC(=O)[C@H](CC(F)(F)F)N(C)C(=O)C[C@@H](C(=O)N2CCCCC2)N(C)C(=O)[C@H](C(C)C)N(C)C(=O)C2(CCCC2)NC(=O)[C@@H]2CCCN2C(=O)[C@H](CCc2ccc(C(F)(F)F)c(Cl)c2)NC(=O)CN(C)C(=O)[C@H](CC2CCCCC2)N(C)C(=O)[C@@H]2CCN2C(=O)[C@H](C)N(C)C1=O` [Compound 1704] ([NMeAbu(4,4,4-F3)]I[NMeA][Aze][NMeCha][Sar][hPhe(3-Cl-4-CF3)]P[Ac5c][NMeV][NMeD]-Piperidide; lactam N-11): the IC50 in assay [1] is 6 nM; in assay [2] it was 100 to 500 nM.
